SMILES strings stand for the structures. pEC50, pIC50: −log10 of the molar value. Numbered stars: 1 amine (or outer) side, 2 acyl side, 3 side chain; on linkers, the order of the positions; unused ones are H or OH. Peptide text beside a SMILES is read from it. * marks the point of attachment. C18 diacid = O=C(O)CCCCCCCCCCCCCCCCC(=O)*; γGlu = O=C(O)[C@H](CCC(=O)[*:2])N[*:1]

Series [1] is described as follows: Solubility in 100 mM bistrispropane buffer at pH 7.0 incubated for 18 hrs by UPLC analysis. The series is classed as physicochemical.
In series [2] the target is T1, Amylin receptor AMY3; CALCR/RAMP3 (Homo sapiens, UniProt O60896+P30988).
T1 sequence (P30988 whole entry): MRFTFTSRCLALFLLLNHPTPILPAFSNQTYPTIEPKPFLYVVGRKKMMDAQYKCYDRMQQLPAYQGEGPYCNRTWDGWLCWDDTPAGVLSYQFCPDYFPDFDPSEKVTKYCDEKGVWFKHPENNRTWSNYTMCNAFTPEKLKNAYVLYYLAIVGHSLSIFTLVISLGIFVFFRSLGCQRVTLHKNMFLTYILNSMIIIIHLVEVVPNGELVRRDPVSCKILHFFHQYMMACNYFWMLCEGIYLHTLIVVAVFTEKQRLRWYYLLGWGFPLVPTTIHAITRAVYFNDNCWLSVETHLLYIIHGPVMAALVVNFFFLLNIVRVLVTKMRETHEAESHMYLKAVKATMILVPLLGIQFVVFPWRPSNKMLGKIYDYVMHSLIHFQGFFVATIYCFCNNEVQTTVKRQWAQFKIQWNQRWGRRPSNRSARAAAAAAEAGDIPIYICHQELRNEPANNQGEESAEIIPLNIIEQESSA
T1 sequence (O60896 whole entry): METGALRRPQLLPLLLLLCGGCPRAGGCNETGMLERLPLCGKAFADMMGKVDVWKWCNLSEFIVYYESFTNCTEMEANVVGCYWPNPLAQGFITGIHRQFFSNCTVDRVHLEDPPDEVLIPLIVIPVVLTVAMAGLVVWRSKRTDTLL
The experiment in a line: Agonist activity at human amylin receptor expressed in BHK570 cells co-expressing RAMP3 assessed as increase in intracellular cAMP concentration incubated for 3 hrs in presence of 10% FBS by CRE luciferase reporter gene assay. The series is classed as functional, cell-based. A general note: A reporter such as luciferase makes a cellular process visible.

In series [3] the target is T1, Amylin receptor AMY3; CALCR/RAMP3. Description: Displacement of [125I]-labeled rat amylin from human amylin receptor expressed in BHK570 cell membranes co-expressing RAMP3 incubated for 120 mins by scintillation proximity assay.
Series [4] is described as follows: Solubility in 100 mM bistrispropane buffer at pH 7.5 incubated for 18 hrs by UPLC analysis. The series is classed as physicochemical.
The nature of series [5]: Solubility in 100 mM bistrispropane buffer at pH 6.5 incubated for 18 hrs by UPLC analysis. The series is classed as physicochemical.
Series [6] can be described thus: Stability in pH 7.5 buffer assessed as lag time for fibril formation at 1 uM by Thioflavin T based fluorescence assay. The series is classed as physicochemical. To be noted: pH 7.5, 1 µM.
Series [7] relates to Rattus norvegicus. The experiment in a line: Reduction in food intake in Sprague-Dawley rat at 3 nmol/kg measured 24 to 48 hrs post dose relative to control. The series is classed as functional. Details: scale not given: the % may be the effect or the level left.
The target of series [8] is T2, Calcitonin receptor (Homo sapiens, UniProt P30988).
T2 sequence (P30988 whole entry): T1 sequence (P30988 whole entry)
The experiment in a line: Agonist activity at human calcitonin receptor expressed in BHK570 cells assessed as increase in intracellular cAMP concentration incubated for 3 hrs in presence of 10% FBS by CRE luciferase reporter gene assay. The series is classed as functional, cell-based.

Series [9] deals with Rattus norvegicus. Description: Reduction in food intake in Sprague-Dawley rat at 3 nmol/kg measured 0 to 24 hrs post dose relative to control. The series is classed as functional. Also noted: scale not given: the % may be the effect or the level left.
The target in series [10] is T2, Calcitonin receptor. Description: Displacement of [125I]-labeled human calcitonin from human calcitonin receptor expressed in BHK tkts13 cell membranes incubated for 1 hr by scintillation proximity assay. (In general: In a radioligand displacement assay an active substance lowers the binding of a labelled ligand.)
Series [11] is described as follows: Stability in pH 7.5 buffer assessed as compound recovery at 1 uM by Thioflavin T based fluorescence assay. The class given is physicochemical. To be noted: read-out: Drug recovery.
Series [12] in a line: Solubility in 100 mM glycylglycine buffer at pH 4.0 incubated for 18 hrs by UPLC analysis. The class given is physicochemical.
Series [13] can be described thus: Solubility in 100 mM bistrispropane buffer at pH 6.0 incubated for 18 hrs by UPLC analysis. The class given is physicochemical.
Series [14] can be described thus: Solubility in 100 mM bistrispropane buffer at pH 8.0 incubated for 18 hrs by UPLC analysis. The class given is physicochemical.
The nature of series [15]: Solubility in 100 mM glycylglycine buffer at pH 3.0 incubated for 18 hrs by UPLC analysis. The class given is physicochemical.

For orientation: solubility means the dissolved amount per volume that the medium holds. One may read the pEC50 as −log10 of the EC50, conventionally taken in molar units. As a reminder, the pIC50 is −log10 of the IC50, conventionally taken in molar units. As to `CC(C)C[C@H](NC(=O)CNC(=O)[C@H](CO)NC(=O)[C@H](C)NC(=O)CC[C@H](NC(=O)CCCCCCCCCCCCCCCCC(=O)O)C(=O)O)C(=O)N[C@@H](CO)C(=O)N[C@H](C(=O)N[C@@H](C)C(=O)N[C@@H](C)C(=O)N[C@@H](CC(C)C)C(=O)NCC(=O)N[C@@H](CCCNC(=N)N)C(=O)N[C@@H](CC(C)C)C(=O)N[C@@H](CO)C(=O)N[C@@H](CCC(N)=O)C(=O)N[C@@H](CCC(=O)O)C(=O)N[C@@H](CC(C)C)C(=O)N[C@@H](Cc1cnc[nH]1)C(=O)N[C@@H](CCC(=O)O)C(=O)N[C@@H](CC(C)C)C(=O)N[C@@H](CCC(N)=O)C(=O)N[C@H](C(=O)N[C@@H](Cc1ccc(O)cc1)C(=O)N1CCC[C@H]1C(=O)N[C@@H](CCCNC(=N)N)C(=O)N[C@H](C(=O)N[C@@H](CCC(=O)O)C(=O)N[C@H](C(=O)NCC(=O)N[C@@H](CO)C(=O)NCC(=O)N[C@H](C(=O)N[C@@H](Cc1ccc(O)cc1)C(N)=O)[C@@H](C)O)[C@@H](C)O)[C@@H](C)O)[C@@H](C)O)[C@@H](C)O` ({C18 diacid-γGlu}-ASGLSTAALGRLSQELHELQTYPRTETGSGTY-NH2), the solubility at 18 h in [1], in series [4], in series [5], in series [12], in [13] and in series [14] was at least 200 µM each time. This compound displayed a solubility at 18 h in series [15] of at least 200 µM. In addition, the pEC50 in series [2] was 10.15; at Calcitonin receptor [8] it was 10.28. Also, the results for the negative logarithm of the IC50 (pIC50) (in series [3]; on Calcitonin receptor [10]) were 9.91 and 10.24, respectively. Also, in [6], the Time was above 45 h. In addition, the Activity is given as 8% with Rattus norvegicus [7] and 44% with Rattus norvegicus [9]. Further, in series [11], the remaining at 1 µM stood at 100%.
